Laboratory results from patent US20110117008A1, “USE OF AVICINS TO DELIVER THERAPEUTIC AND DIAGNOSTIC AGENTS” (Research Development Foundation, priority 2007, published 2011).
“Also recorded” adds a separate entry of the source. Where a name gives a salt, the structure may show the parent alone. *1 amine or outer side, *2 acyl side, *3 side chain or, on linkers, in order; H or OH if unused. Where a SMILES comes first, the peptide text is derived from it. Bridges are numbered along the chain shown (N, C = ends). Roman numbers before positions name the chains, in order. [ ]: non-standard residue; d: D form. Actinocin(9to1) = Cc1c2oc3c(C)ccc(C(=O)[*:1])c3nc-2c(C(=O)[*:2])c(N)c1=O; NMeV = CN[C@H](C(=O)O)C(C)C; Sar = CNCC(=O)O

Tests used:
[1] = cited from earlier work
[2] = tested on: full thickness porcine skin; experiment: Tritiated water transport through full thickness porcine skin, side by side diffusion cells, scintillation counting; assay type: in vitro ADME, pig; conditions: tritiated water in PBS, F094 10 mg/ml, Avicin D and Avicin G 1 mg/ml, 24 hours
Description: In addition, it was desired to access if the known enhancer N-Methyl Pyrrolidinone (NMP) might modulate skin's water permeability when codelivered. […] Each donor compartment solution was loaded with 5 μCi/ml (1 μg/ml) of tritiated (^3H) water. Receiver compartments were sampled at 0.5, 1, 2, 3, 6, 12, 18 and 24 hours.
Likewise, Avicin D and Avicin G solutions contained 1 mg/ml of Avicin D and G respectively, along with PBS and tritiated water (1 μg/ml, 5 μCi/ml).
(§1) Upon receipt, concentrated stock solutions were made in DMSO.

[3] = tested on: full thickness porcine skin; experiment: 3H-estradiol transport and percutaneous absorption, full thickness porcine skin, side by side diffusion cells; assay type: in vitro ADME, pig; conditions: 3H-estradiol in PBS; F094 5-20 mg/ml, Avicin D and Avicin G 1 mg/ml; 24 hours
Description: Each solution was loaded with 5 μCi/ml of 3H-Estradiol (Amersham TRK 322). Receiver compartments were sampled at 0.5 1, 2, 3, 6, 12, 18 and 24 hours.
Likewise, Avicin D and Avicin G solutions contained 1 mg/ml of Avicin D and G respectively, along with PBS and 3H-estradiol (5 μCi/ml).
as §1

[4] = adults with previously untreated chronic myelogenous leukemia; cited from earlier work
full thickness pig skin = experiment: Water soluble anesthetic transport in full thickness pig skin, HPLC quantification; conditions: for Maximum % Enhancement over control: highest enhancement of the anesthetic's permeability with F094
Excerpt: (§2) HPLC was used to quantify delivered mass, and to calculate permabilities in lag times. Error bar represents mean+/−standard deviation.
as §2

[5] = Partition coefficient of anesthetics between octanol and water, HPLC; assay type: physicochemical; conditions: for Partition coefficient (octanol/water): as listed in Table 4; for Partition Coefficient: octanol/water
[6] = cited from earlier work; remark: listed apart in the source

Structure (SMILES): O=C(O)CCCc1ccc(N(CCCl)CCCl)cc1 [Chlorambucil, 4-[bis(2-chlorethyl)amino]benzenebutanoic acid]
- oral / gastrointestinal absorption ([1]; in vivo, po): rapidly and completely absorbed from the gastrointestinal tract
- terminal half-life ([1]; plasma): ~1.5 h

Structure (SMILES): CC[C@]1(O)C[C@H]2CN(CCc3c([nH]c4ccccc34)[C@@](C(=O)OC)(c3cc4c(cc3OC)N(C=O)[C@H]3[C@@](O)(C(=O)OC)[C@H](OC(C)=O)[C@]5(CC)C=CCN6CC[C@]43[C@@H]65)C2)C1 [vincristine, Vincristine]
- oral / gastrointestinal absorption ([1]; in vivo, po): Unpredictable absorption

Structure (SMILES): C=C[C@](C)(O)CC/C=C(\CO)C(=O)O[C@H]1[C@H](O)[C@@H](O)[C@H](O[C@@](C)(C=C)CC/C=C(\CO)C(=O)O[C@H]2C[C@]3(C(=O)O[C@@H]4O[C@H](CO)[C@@H](O)[C@H](O)[C@H]4O[C@@H]4O[C@@H](C)[C@H](O[C@@H]5O[C@@H](CO)[C@H](O)[C@H]5O)[C@@H](O[C@@H]5O[C@H](CO)[C@@H](O)[C@H](O)[C@H]5O)[C@H]4O)[C@H](O)C[C@]4(C)C(=CC[C@@H]5[C@@]6(C)CC[C@H](O[C@@H]7O[C@H](CO[C@@H]8O[C@H](C)[C@H](O)[C@H](O)[C@H]8O[C@@H]8OC[C@@H](O)[C@H](O)[C@H]8O)[C@@H](O)[C@H](O)[C@H]7NC(C)=O)C(C)(C)[C@@H]6CC[C@]54C)[C@@H]3CC2(C)C)O[C@@H]1C [Avicin D]
- effect on water transport / water permeability of skin [2]: potent enhancer of water and estradiol permeability through the skin; also recorded: increases water permeability of skin as compared to Avicin G
- effect on water transport / water permeability of skin ([2]; listed as avicin D): differentially enhance water permeability
- effect on estradiol transport / estradiol permeability of skin [3]: potent enhancer of water and estradiol permeability through the skin; also recorded: increase estradiol permeability of skin as compared to Avicin G

Structure (SMILES): CS(=O)(=O)OCCCCOS(C)(=O)=O [Busulfan, 1,4-butanediol dimethanesulfonate]
- hematologic remission with regression or stabilization of organomegaly [4]: Approximately 90%

Structure (SMILES): COc1cccc2c1C(=O)c1c(O)c3c(c(O)c1C2=O)C[C@@](O)(C(=O)CO)C[C@@H]3O[C@H]1C[C@H](N)[C@H](O)[C@H](C)O1 [Doxorubicin, 5,12-Naphthacenedione, (8s-cis)-10-[(3-amino-2,3,6-trideoxy-a-L-lyxo-hexopyranosyl)oxy]-7,8,9,10-tetrahydro-6,8,11-trihydroxy-8-(hydroxyacetyl)-1-methoxy-hydrochloride]
- oral / gastrointestinal absorption ([1]; in vivo, po): absorbed poorly

Structure (SMILES): CCCNC(C)C(=O)Nc1ccccc1C (stereo not drawn) [Prilocaine HCl]
- Permeability (full thickness pig skin): 0.46 ± 0.11 × 10^−3 (cm/hr)
- Maximum % Enhancement over control (full thickness pig skin): 228%
- Partition coefficient (octanol/water) [5]: 0.43
- Partition Coefficient ([5]; 0 mg/ml F094): 0.47 ± 0.03
- Partition Coefficient ([5]; 1 mg/ml F094): 0.43 ± 0.02
- Partition Coefficient ([5]; 5 mg/ml F094): 0.51 ± 0.02
- Partition Coefficient ([5]; 10 mg/ml F094): 0.50 ± 0.01

Structure (SMILES): COc1cccc2c1C(=O)c1c(O)c3c(c(O)c1C2=O)C[C@@](O)(C(C)=O)C[C@@H]3O[C@H]1C[C@H](N)[C@H](O)[C@H](C)O1 [Daunorubicin]
- oral / gastrointestinal absorption ([1]; in vivo, po): Oral absorption is poor

Structure (SMILES): C=C[C@](C)(O)CC/C=C(\C)C(=O)O[C@H]1[C@H](O)[C@@H](O)[C@H](O[C@@](C)(C=C)CC/C=C(\CO)C(=O)O[C@H]2C[C@]3(C(=O)O[C@@H]4O[C@H](CO)[C@@H](O)[C@H](O)[C@H]4O[C@@H]4O[C@@H](C)[C@H](O[C@@H]5O[C@@H](CO)[C@H](O)[C@H]5O)[C@@H](O[C@@H]5O[C@H](CO)[C@@H](O)[C@H](O)[C@H]5O)[C@H]4O)[C@H](O)C[C@]4(C)C(=CC[C@@H]5[C@@]6(C)CC[C@H](O[C@@H]7O[C@H](CO[C@@H]8O[C@H](C)[C@H](O)[C@H](O)[C@H]8O[C@@H]8OC[C@@H](O)[C@H](O)[C@H]8O)[C@@H](O)[C@H](O)[C@H]7NC(C)=O)C(C)(C)[C@@H]6CC[C@]54C)[C@@H]3CC2(C)C)O[C@@H]1C [Avicin G]
- effect on water transport / water permeability of skin [2]: inhibits water transport in comparison to Avicin D; also recorded: differentially enhance water permeability

Structure (SMILES): CC[C@]1(O)C[C@@H]2CN(CCc3c([nH]c4ccccc34)[C@@](C(=O)OC)(c3cc4c(cc3OC)N(C)[C@H]3[C@@](O)(C(=O)OC)[C@H](OC(C)=O)[C@]5(CC)C=CCN6CC[C@]43[C@@H]65)C2)C1 [vinblastine, Vinblastine]
- plasma half-life after distribution (first) ([1]; after intravenous injection): approximately 1 hours
- plasma half-life after distribution (second) ([1]; after intravenous injection): ~72000 s
- oral / gastrointestinal absorption ([1]; in vivo, po): Unpredictable absorption

Structure (SMILES): CCCCN1CCCCC1C(=O)Nc1c(C)cccc1C (stereo not drawn) [Bupivacaine HCl]
- Permeability (full thickness pig skin): 0.71 ± 0.05 × 10^−3 (cm/hr)
- Lag time (full thickness pig skin; female, pig): 10.8 ± 1.1 h
- Maximum % Enhancement over control (full thickness pig skin): 347%
- Partition coefficient (octanol/water) [5]: 1.7
- Partition Coefficient ([5]; 0 mg/ml F094): 3.3 ± 0.4
- Partition Coefficient ([5]; 1 mg/ml F094): 3.6 ± 0.5
- Partition Coefficient ([5]; 5 mg/ml F094): 4.1 ± 0.3
- Partition Coefficient ([5]; 10 mg/ml F094): 3.5 ± 0.8

Structure (SMILES): Cc1c2oc3c(C)ccc(C(=O)N[C@@H]4C(=O)N[C@H](C(C)C)C(=O)N5CCC[C@H]5C(=O)N(C)CC(=O)N(C)[C@@H](C(C)C)C(=O)O[C@@H]4C)c3nc-2c(C(=O)N[C@@H]2C(=O)N[C@H](C(C)C)C(=O)N3CCC[C@H]3C(=O)N(C)CC(=O)N(C)[C@@H](C(C)C)C(=O)O[C@@H]2C)c(N)c1=O [Actinomycin D] (I: T[dV]P[Sar][NMeV] / II: T[dV]P[Sar][NMeV]; ester I:1-I:C, II:1-II:C; linker I:N-II:N via Actinocin(9to1))
- share of the dose excreted intact into the bile ([1]; in vivo): Half of the dose

Structure (SMILES): CC[C@@]1(O)C(=O)OCc2c1cc1n(c2=O)Cc2cc3ccccc3nc2-1 [camptothecin, Camptothecin]
- solubility in water [6]: poor water-solubility
- storage stability ([6]; stored at 2-8° C. in a dry, airtight, light-resistant environment): stable for at least two years

Structure (SMILES): N.N.[Cl][Pt][Cl] [Cisplatin]
- oral / gastrointestinal absorption ([1]; in vivo, po): not absorbed orally

Structure (SMILES): O=NN(CCCl)C(=O)NC1CCCCC1 [Lomustine, 1-(2-chloro-ethyl)-3-cyclohexyl-1 nitrosourea]
- radioactivity excreted in the form of degradation products ([1]; in vivo, po): about half
